From ChEMBL document CHEMBL3044672, “N9- and N7-(Chloromethyl Phenymethyl)Chloropurine Derivatives from , '-Dichloroxylenes: Synthesis and Anticancer Activity” (2005)

How the values were obtained:
Assay type in all cases: functional
UACC-257 = assay: Cytotoxicity against Homo sapiens (human) UACC257 cells after 48 hr by sulforhodamine B assay; details: UACC-257, 48 h
IGROV-1 = assay: Cytotoxicity against Homo sapiens (human) IGROV1 cells after 48 hr by sulforhodamine B assay; details: IGROV-1, 48 h
HCT-116 = assay: Cytotoxicity against Homo sapiens (human) HCT116 cells after 48 hr by sulforhodamine B assay; details: HCT-116, 48 h
MDA-MB-435 = assay: Cytotoxicity against Homo sapiens (human) MDA-MB-435 cells after 48 hr by sulforhodamine B assay; details: MDA-MB-435, 48 h
SK-MEL-2 = assay: Cytotoxicity against Homo sapiens (human) SK-MEL-2 cells after 48 hr by sulforhodamine B assay; details: SK-MEL-2, 48 h
U-251 = assay: Cytotoxicity against Homo sapiens (human) U251 cells after 48 hr by sulforhodamine B assay; details: U-251, 48 h
HOP-92 = assay: Cytotoxicity against Homo sapiens (human) HOP92 cells after 48 hr by sulforhodamine B assay; details: HOP-92, 48 h
CCRF-CEM = assay: Cytotoxicity against Homo sapiens (human) CCRF-CEM cells after 48 hr by sulforhodamine B assay
TK-10 = assay: Cytotoxicity against Homo sapiens (human) TK10 cells after 48 hr by sulforhodamine B assay; details: TK-10, 48 h
ACHN = assay: Cytotoxicity against Homo sapiens (human) ACHN cells after 48 hr by sulforhodamine B assay
UO-31 = assay: Cytotoxicity against Homo sapiens (human) UO31 cells after 48 hr by sulforhodamine B assay; details: UO-31, 48 h
HCC 2998 = assay: Cytotoxicity against Homo sapiens (human) HCC2998 cells after 48 hr by sulforhodamine B assay; details: HCC 2998, 48 h
[1] = Cytotoxicity against Homo sapiens (human) NCI-ADR-RES cells after 48 hr by sulforhodamine B assay
HCT-15 = assay: Cytotoxicity against Homo sapiens (human) HCT15 cells after 48 hr by sulforhodamine B assay; details: HCT-15, 48 h
MCF7 = assay: Cytotoxicity against Homo sapiens (human) MCF7 cells assessed as cell growth at 10^-4 M after 48 hr by Alamar blue assay; details: MCF7, 48 h, read-out: Activity
M14 = assay: Cytotoxicity against Homo sapiens (human) M14 cells after 48 hr by sulforhodamine B assay; details: M14, 48 h
OVCAR-3 = assay: Cytotoxicity against Homo sapiens (human) OVCAR3 cells after 48 hr by sulforhodamine B assay; details: OVCAR-3, 48 h
T47D = assay: Cytotoxicity against Homo sapiens (human) T47D cells after 48 hr by sulforhodamine B assay
MOLT-4 = assay: Cytotoxicity against Homo sapiens (human) MOLT4 cells after 48 hr by sulforhodamine B assay; details: MOLT-4, 48 h
DU-145 = assay: Cytotoxicity against Homo sapiens (human) DU145 cells after 48 hr by sulforhodamine B assay; details: DU-145, 48 h
Hs-578T = assay: Cytotoxicity against Homo sapiens (human) Hs 578T cells after 48 hr by sulforhodamine B assay
NCI-H226 = assay: Cytotoxicity against Homo sapiens (human) NCI-H226 cells after 48 hr by sulforhodamine B assay; details: NCI-H226, 48 h
CAKI-1 = assay: Cytotoxicity against Homo sapiens (human) Caki1 cells after 48 hr by sulforhodamine B assay; details: CAKI-1, 48 h
NCI-H460 = assay: Cytotoxicity against Homo sapiens (human) NCI-H460 cells after 48 hr by sulforhodamine B assay; details: NCI-H460, 48 h
SW-620 = assay: Cytotoxicity against Homo sapiens (human) SW620 cells after 48 hr by sulforhodamine B assay; details: SW-620, 48 h
786-0 = assay: Cytotoxicity against Homo sapiens (human) 786-0 cells after 48 hr by sulforhodamine B assay; details: 786-0, 48 h
SK-MEL-28 = assay: Cytotoxicity against Homo sapiens (human) SK-MEL-28 cells after 48 hr by sulforhodamine B assay; details: SK-MEL-28, 48 h
OVCAR-5 = assay: Cytotoxicity against Homo sapiens (human) OVCAR5 cells after 48 hr by sulforhodamine B assay; details: OVCAR-5, 48 h
SF-295 = assay: Cytotoxicity against Homo sapiens (human) SF295 cells after 48 hr by sulforhodamine B assay; details: SF-295, 48 h
NCI-H322M = assay: Cytotoxicity against Homo sapiens (human) NCI-H322M cells after 48 hr by sulforhodamine B assay
A498 = assay: Cytotoxicity against Homo sapiens (human) A498 cells after 48 hr by sulforhodamine B assay; details: A498, 48 h
A549 = assay: Cytotoxicity against Homo sapiens (human) A549 cells after 48 hr by sulforhodamine B assay; details: A549, 48 h
[2] = read-out: LC50 (the source's name)

ClCc1cccc(Cn2cnc3c(Cl)nc(Cl)nc32)c1
GI50 (UACC-257): 1.86 µM | LC50 (concentration killing 50% of cells) (UACC-257): 6.45 µM | TGI (UACC-257): 3.46 µM | GI50 (IGROV-1): 2.29 µM | LC50 (IGROV-1): 19.9 µM | TGI (IGROV-1): 5.12 µM | GI50 (HCT-116): 1.62 µM | TGI (HCT-116): 3.09 µM | CC50 (HCT-116; [2]): 5.88 µM | GI50 (MDA-MB-435): 1.69 µM | LC50 (MDA-MB-435): 6.31 µM | TGI (MDA-MB-435): 3.23 µM | GI50 (SK-MEL-2): 1.99 µM | LC50 (concentration killing 50% of cells) (SK-MEL-2): 10 µM | TGI (SK-MEL-2): 4.46 µM | GI50 (U-251): 1.69 µM | LC50 (concentration killing 50% of cells) (U-251): 5.62 µM | TGI (U-251): 3.09 µM | GI50 (HOP-92): 1.82 µM | TGI (HOP-92): 3.63 µM | CC50 (HOP-92; [2]): 7.08 µM | GI50 (CCRF-CEM): 2.69 µM | TGI (CCRF-CEM): > 100 µM | CC50 (CCRF-CEM; [2]): > 100 µM | GI50 (TK-10): 1.73 µM | TGI (TK-10): 3.98 µM | CC50 (TK-10; [2]): 8.91 µM | GI50 (ACHN): 1.9 µM | TGI (ACHN): 3.71 µM | CC50 (ACHN; [2]): 7.24 µM | GI50 (UO-31): 1.58 µM | LC50 (concentration causing 50% net cell kill) (UO-31): 5.88 µM | TGI (UO-31): 3.09 µM | GI50 (HCC 2998): 1.62 µM | TGI (HCC 2998): 3.16 µM | CC50 (HCC 2998; [2]): 6.16 µM | GI50 [1]: 2.39 µM | LC50 (concentration killing 50% of cells) [1]: > 100 µM | TGI [1]: 5.24 µM | GI50 (HCT-15): 2.39 µM | TGI (HCT-15): 6.91 µM | CC50 (HCT-15; [2]): > 100 µM | growth at 100 µM (MCF7): 0% | GI50 (M14): 1.77 µM | LC50 (M14): 6.45 µM | TGI (M14): 3.38 µM | GI50 (OVCAR-3): 1.58 µM | LC50 (OVCAR-3): 6.45 µM | TGI (OVCAR-3): 3.23 µM | GI50 (T47D): 1.95 µM | LC50 (T47D): > 100 µM | TGI (T47D): 4.46 µM | GI50 (MOLT-4): 3.38 µM | TGI (MOLT-4): > 100 µM | CC50 (MOLT-4; [2]): > 100 µM | GI50 (DU-145): 1.58 µM | LC50 (DU-145): 5.62 µM | TGI (DU-145): 2.95 µM | GI50 (Hs-578T): 1.99 µM | TGI (Hs-578T): 4.36 µM | GI50 (NCI-H226): 3.23 µM | TGI (NCI-H226): 10 µM | CC50 (NCI-H226; [2]): 40.7 µM | GI50 (CAKI-1): 2.23 µM | TGI (CAKI-1): 5.88 µM | CC50 (CAKI-1; [2]): 22.9 µM | GI50 (NCI-H460): 2.34 µM | TGI (NCI-H460): 6.31 µM | CC50 (NCI-H460; [2]): > 100 µM | GI50 (SW-620): 1.58 µM | TGI (SW-620): 3.46 µM | CC50 (SW-620; [2]): 7.76 µM | GI50 (786-0): 12.3 µM | LC50 (786-0): 57.5 µM | TGI (786-0): 26.9 µM | GI50 (SK-MEL-28): 2.34 µM | LC50 (concentration killing 50% of cells) (SK-MEL-28): > 100 µM | TGI (SK-MEL-28): 5.37 µM | GI50 (OVCAR-5): 6.45 µM | TGI (OVCAR-5): 20.4 µM | CC50 (OVCAR-5; [2]): 47.9 µM | GI50 (SF-295): 4.36 µM | TGI (SF-295): 17 µM | CC50 (SF-295; [2]): 45.7 µM | GI50 (NCI-H322M): 2.29 µM | TGI (NCI-H322M): 5.12 µM | CC50 (NCI-H322M; [2]): 15.8 µM | GI50 (A498): 2.39 µM | LC50 (lethal concentration, 50% cell kill) (A498): 27.5 µM | TGI (A498): 6.6 µM | GI50 (A549): 3.09 µM | TGI (A549): 10 µM | CC50 (A549; [2]): 52.5 µM
